Consider eight molecules from US7863446B2, “Heterocycles” (Orchid Research Laboratories Limited, priority 2006, dated 2011).

The target in one series is T1, COX-2 (Homo sapiens, UniProt P35354).
T1 construct: Fresh blood was collected in tubes containing sodium heparin by vein puncture from healthy male volunteers; endogenous in cells; host or cells: human whole blood from healthy male volunteers, stimulated with LPS
T1 sequence (P35354 18-604): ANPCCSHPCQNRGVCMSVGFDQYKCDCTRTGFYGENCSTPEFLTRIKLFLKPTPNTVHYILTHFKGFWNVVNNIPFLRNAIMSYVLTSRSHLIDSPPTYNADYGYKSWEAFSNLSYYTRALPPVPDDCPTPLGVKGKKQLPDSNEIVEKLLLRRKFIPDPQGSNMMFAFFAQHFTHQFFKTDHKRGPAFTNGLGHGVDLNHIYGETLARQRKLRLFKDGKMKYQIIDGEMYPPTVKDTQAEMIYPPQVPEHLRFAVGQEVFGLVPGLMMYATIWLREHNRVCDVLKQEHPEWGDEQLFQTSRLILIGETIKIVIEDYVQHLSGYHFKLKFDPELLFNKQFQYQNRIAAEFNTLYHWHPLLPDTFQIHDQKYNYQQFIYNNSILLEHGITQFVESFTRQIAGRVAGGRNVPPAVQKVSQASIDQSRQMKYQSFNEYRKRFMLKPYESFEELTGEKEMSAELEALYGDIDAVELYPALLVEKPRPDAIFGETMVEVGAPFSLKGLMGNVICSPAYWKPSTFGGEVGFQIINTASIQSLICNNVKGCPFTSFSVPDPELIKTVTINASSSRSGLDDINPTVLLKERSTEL
Kind of series: Human whole blood assay (PGE-2 inhibition, COX-2). Format: cell-based. Particulars: LPS stimulated human whole blood, NA = No activity, read-out: % PGE-2 Inhibition in hWBA. The protocol:
In Vitro Evaluation of Cyclooxygenase-2 (Cox-2) Inhibition Activity
The COX-2 inhibition activities of the compounds illustrated in the examples were determined by the following method.
Human whole blood provides a protein and cell rich milieu appropriate for the study of the biochemical efficacy of anti-inflammatory compounds such as selective COX-2 inhibitors. […] This correlates with the observation that COX-2 inhibitors have no effect on prostaglandin E2 (PGE2) production in normal blood. These inhibitors were active only after incubation of human blood with lipopolysaccharide (LPS), which induces COX-2 production in the blood.
Fresh blood was collected in tubes containing sodium heparin by vein puncture from healthy male volunteers. The subjects should have no apparent inflammatory conditions and should have not taken NSAIDs for at least 7 days prior to blood collection. Blood was preincubated with aspirin in vitro (12 μg/ml, at time zero) to inactivate COX-1 for 6 hours. Then test compounds (at various concentrations) or vehicle were added to blood, the blood was stimulated with LPS B:4 (10 μg/ml) and incubated for another 18 hours at 37° C. water bath. After which the blood was centrifuged, plasma was separated and stored at −80° C. (J. Pharmacol. Exp. Ther, 271, 1705, 1994; Proc. Natl. Acad. Sci. USA, 96, 7563, 1999). The plasma was assayed for PGE2 using Cayman ELISA kit as per the procedure outlined by the manufacturer (Cayman Chemicals, Ann Arbor, USA).

Another series deals with TNF-α. Kind of series: In vitro measurement of TNF-α in human PBMC (LPS stimulated). Type of series: cell-based. The method, then:
In Vitro Measurement of Tumor Necrosis Factor Alpha (TNF-α)
This assay determines the effect of test compounds on the production of TNF α in human Peripheral Blood Mononuclear Cells (PBMC). Compounds were tested for their ability to inhibit the activity of TNF α in human PBMC. PBMC were isolated from blood (of healthy volunteers) using BD Vacutainer CPT™ (Cell preparation tube, BD Bio Science) and suspended in RPMI medium (Physiol. Res. 52: 593-598, 2003). The test compounds were pre-incubated with PBMC (0.5 million/incubation well) for 15 minutes at 37° C. and then stimulated with Lipopolysaccharide (Escherichia coli: B4; 1 μg/ml) for 18 hours at 37° C. in 5% CO2. The levels of TNF-α in the cell culture medium were estimated using enzyme-linked immunosorbent assay performed in a 96 well format as per the procedure of the manufacturer (Cayman Chemical, Ann Arbor, USA).

In another series the test system is IL-6. Kind of series: In vitro measurement of IL-6 in human PBMC (LPS stimulated). Type of series: cell-based. The method, then: In Vitro Measurement of Interleukin-6(IL-6)
This assay determins the effect of test compounds on the production of IL-6 in human PBMC (Physiol. Res. 52: 593-598, 2003). Compounds were tested for their ability to inhibit the activity of IL-6 in human PBMC. PBMC were isolated from blood using BD Vacutainer CPT™ Cell preparation tube (BD Bio Science) and suspended in RPMI medium. The test compounds were pre-incubated with PBMC (0.5 million/incubation well) for 15 minutes at 37° C. and then stimulated with Lipopolysaccharide (Escherichia coli: B4; 1 μg/ml) for 18 hours at 37° C. in 5% CO2. The levels of IL-6 in cell culture medium were estimated using enzyme-linked immunosorbent assay performed in a 96 well format as per the procedure of the manufacturer (Cayman Chemical, Ann Arbor, USA).

The target in series [1] is purified recombinant COX-1 (Homo sapiens, UniProt P23219). Kind of series: COX-1 enzyme based assay. Format: biochemical. The settings on record: NA = No activity, read-out: % Inhibition in rEnzyme Assay COX-1. The protocol:
(§1) COX-1 and COX-2 Enzyme Based Assay
(§2) COX-1 and COX-2 enzyme based assays were carried out to check the inhibitory potential of the test compounds on the production of prostaglandin by purified recombinant COX-1/COX-2 enzyme (Proc. Nat. Acad. Sci. USA, 88, 2692-2696, 1991; J. Clin. Immunoassay 15, 116-120, 1992) In this assay, the potential of the test compound to inhibit the production of prostaglandin either by COX-1 or COX-2 from arachidonic acid (substrate) was measured. This was an enzyme based in-vitro assay to evaluate selective COX inhibition with good reproducibility.
(§3) Arachidonic acid was converted to PGH2 (Intermediate product) by COX1/COX-2 in the presence or absence of the test compound. The reaction was carried out at 37° C. and after 2 minutes it was stopped by adding 1M HCl. Intermediate product PGH2 was converted to a stable prostanoid product PGF2αby SnCl2 reduction. The amount of PGF2α, produced in the reaction was inversely proportional to the COX inhibitory potential of the test compound. The prostanoid product was quantified via enzyme immunoassay (EIA) using a broadly specific antibody that binds to all the major forms of prostaglandin, using Cayman ELISA kit as per the procedure outlined by the manufacturer (Cayman Chemicals, Ann Arbor, USA).

For series [2], the target named is T2, purified recombinant COX-2 (Homo sapiens, UniProt P35354).
T2 sequence (P35354 18-604): T1 sequence (P35354 18-604)
Kind of series: COX-2 enzyme based assay. Format: biochemical. Particulars: 10 μM; NA = No activity; read-out: % Inhibition in rEnzyme Assay COX-2. The protocol:
as §1, §2, §3

A further series deals with HCT-116. Kind of series: Anti-cancer screen (MTT), HCT-116. Format: cell-based. Particulars: Homo sapiens, HCT-116, 48 hours. The method, then:
(§4) Experimental drugs are screened for anti-cancer activity in three cell lines for their GI50, TG1 and LC50 values (using 5 concentrations for each compound). The cell lines are maintained in DMEM containing 10% fetal bovine serum. 96 well microtiter plates are inoculated with cells in […] for 24 hours at 37° C., 5% CO2, 95% air and 100% relative humidity. 5000 HCT116 cells/well, 5000 NCIH460 cells/well, 10000 U251 cells/well and 5000 MDAMB231 cells/well are plated. A separate plate with these cell lines is also inoculated to determine cell viability before the addition of the compounds (T0).
(§5) Addition of Experimental Drugs
(§6) Following 24-hour incubation, experimental drugs are added to the 96 well plates. Each plate contains one of the above cell lines and the following in triplicate: 5 different concentrations (0.01, 0.1, 1, 10 and 100 μM) of 4 different compounds, appropriate dilutions of a cytotoxic standard and control (untreated) wells. Compounds are dissolved in dimethylsulfoxide (DMSO) to make 20 mM stock solutions, on the day of drug addition and frozen at −20° C. Serial dilutions of these 20 mM stock solutions are made in complete growth medium such that 100 μL of these drug solutions in medium, of final concentrations equaling 0.01, 0.1, 1, 10 and 100 μM can be added to the cells in triplicate. Standard drugs whose anti-cancer activity has been well documented and which are regularly used are doxorubicin and SAHA.
(§7) Cells are incubated with compounds for 48 hours followed by the addition of 10 μL 3-(4,5-Dimethyl-2-thiazolyl)-2,5-diphenyl-2H-tetrazolium (MTT) solution per well and a subsequent incubation at 37° C., 5% CO2, 95% air and 100% relative humidity, protected from light. After 4 hours, well contents are aspirated carefully followed by addition of 150 μL DMSO per well. Plates are agitated to ensure solution of the formazan crystals in DMSO and absorbance read at 570 nm.
(§8) Calculation of GI50, TGI and LC50
(§9) Percent growth is calculated for each compound's concentration relative to the control and zero measurement wells (T0; viability right before compound addition).
(§10) If a test well's O.D. value is greater than the T0 measurement for that cell line % Growth=(test−zero)/(control−zero)×100
(§11) If a test well's O.D. value is lower than the T0 measurement for that cell line, then % Growth=(test−zero)/zero×100 Plotting % growth versus experimental drug concentration, GI50 is the concentration required to decrease % growth by 50%; TGI is the concentration required to decrease % growth by 100% and LC50 is the concentration required to decrease % growth by 150%.

Another series concerns NCI-H460. Kind of series: Anti-cancer screen (MTT), NCI-H460. Type of series: cell-based. The settings on record: Homo sapiens, NCI-H460, 48 hours. The protocol:
as §4, §5, §6, §7, §8, §9, §10, §11

For orientation: melting point means the temperature of the solid-liquid transition. What is called inhibition is the relative decrease from the control value, in per cent. As usually defined, the GI50 is the concentration at which growth is held to half of that of the control. Higher therefore signals less potent growth inhibition.

purified recombinant COX-1, sequence (P23219 24-599): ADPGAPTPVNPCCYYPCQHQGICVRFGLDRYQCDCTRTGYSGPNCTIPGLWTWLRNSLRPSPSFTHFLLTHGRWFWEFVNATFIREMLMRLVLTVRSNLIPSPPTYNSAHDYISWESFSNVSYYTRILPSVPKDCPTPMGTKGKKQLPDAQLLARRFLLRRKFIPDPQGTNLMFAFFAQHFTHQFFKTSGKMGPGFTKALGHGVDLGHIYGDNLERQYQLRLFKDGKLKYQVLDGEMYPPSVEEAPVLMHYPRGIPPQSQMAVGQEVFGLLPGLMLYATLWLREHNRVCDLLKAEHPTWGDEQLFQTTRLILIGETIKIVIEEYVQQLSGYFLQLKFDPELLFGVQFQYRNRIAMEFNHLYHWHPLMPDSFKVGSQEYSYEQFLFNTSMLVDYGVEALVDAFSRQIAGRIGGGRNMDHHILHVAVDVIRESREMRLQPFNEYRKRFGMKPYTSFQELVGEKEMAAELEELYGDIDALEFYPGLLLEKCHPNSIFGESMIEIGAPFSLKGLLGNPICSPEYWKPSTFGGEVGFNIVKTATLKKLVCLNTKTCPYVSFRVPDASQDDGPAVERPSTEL

`CS(=O)(=O)c1ccc(-c2nc(C(F)(F)F)nc(Cl)c2-c2ccc(S(=O)(=O)Cl)cc2)cc1` [Example 3, 4-{4-Chloro-6-[4-(methylsulfonyl)phenyl]-2-(trifluoromethyl)pyrimidin-5-yl}benzenesulfonyl chloride] yielded a melting point of 207 to 210 °C.
The molecule `CS(=O)(=O)c1ccc(-c2nc(C(F)(F)F)nc(NN)c2-c2ccc(S(=O)(=O)NN)cc2)cc1` [Example 7, 4-{4-Hydrazino-6-[4-(methylsulfonyl)phenyl]-2-(trifluoromethyl)pyrimidin-5-yl}benzenesulfonohydrazide] had a melting point of 203 to 206 °C. Besides, at COX-2, the inhibition at 0.25 µM was 26.2% and the inhibition at 1 µM is 1.9%.
Consider `O=C(NNc1nc(C(F)(F)F)nc(-c2ccncc2)c1-c1ccc(F)cc1)C(F)(F)F` [Example 14, 2,2,2-Trifluoro-N′-[5-(4-fluorophenyl)-6-pyridin-4-yl-2-(trifluoromethyl)pyrimidin-4-yl]acetohydrazide], for which the melting point was in the range of 240 to 242 °C. The inhibition at 1 µM in the series with TNF-α (1 μM, NA = No activity, read-out: TNF-α Inhibition (%) at Conc. (1 μM)) turned out to be 25.5%. Moreover, the inhibition at 10 µM in the series on TNF-α (10 μM, read-out: TNF-α Inhibition (%) at Conc. (10 μM)) came to 67.5%.
Turning to `CC(=O)NS(=O)(=O)c1ccc(-c2c(Cl)nc(C(F)(F)F)nc2-c2ccc(S(C)(=O)=O)cc2)cc1` [Example 17, N-[(4-{4-Chloro-6-[4-(methylsulfonyl)phenyl]-2-(trifluoromethyl)pyrimidin-5-yl}phenyl)sulfonyl]acetamide], the melting point lay within 230 to 235 °C.
For the molecule `CS(=O)(=O)c1ccc(-c2nc(C(F)(F)F)nc(OS(=O)(=O)c3cccc4ccccc34)c2-c2ccccc2)cc1` [Example 18, 6-[4-(Methylsulfonyl)phenyl]-5-phenyl-2-(trifluoromethyl)pyrimidin-4-ylnapthalenesulfonate], the melting point lay within 204 to 206 °C. In addition, the inhibition at 1 µM in the series with IL-6 (1 μM, read-out: IL-6 Inhibition (%) Conc. (1 μM)) is 32.8%. In the series with IL-6 (10 μM, read-out: IL-6 Inhibition (%) Conc. (10 μM)), the inhibition at 10 µM was 41%.
As for `Cc1ccc(S(=O)(=O)Oc2nc(C(F)(F)F)nc(-c3ccc(S(C)(=O)=O)cc3)c2-c2ccccc2)cc1` [Example 22, 6-[4-(Methylsulfonyl)phenyl]-5-phenyl-2-(trifluoromethyl)pyrimidin-4-yl-4-methylbenzenesulfonate], at COX-2, the inhibition at 0.25 µM was 15.6% and the inhibition at 1 µM is 20.4%. On COX-2 (10 μM), the inhibition at 10 µM came to 36.4%.
`FC(F)(F)c1nc(-c2ccccc2)c(-c2ccccc2)c(N2CCN(c3ccccn3)CC2)n1` [Example 48, 4,5-Diphenyl-6-(4-pyridin-2-yl-piperazin-1-yl)-2-(trifluoromethyl)pyrimidine] showed a melting point of 165 to 167 °C.
`NS(=O)(=O)c1cccc(-c2c(-c3ccccc3)nc(C(F)(F)F)nc2N2CCNCC2)c1` [Example 51, 3-[4-Phenyl-6-piperazin-1-yl-2-(trifluoromethyl)pyrimidin-5-yl]benzenesulfonamide]: the inhibition at 1 µM in series [1] (1 μM) was 8.27%. For the same molecule, the inhibition at 10 µM in series [1] (10 μM) is 7.1%; in series [2], 12.3%. Further, the GI50 was 30 µM with HCT-116 and 4 µM with NCI-H460.
